From patent US4564641A, “Substituted 1-oxo-2-phenyl-2-(2-alkylaminoethyl)-1,2,3,4-tetrahydronaphthalenes, their preparation and their use” (BASF Aktiengesellschaft, priority 1982, dated 1986) come the findings set out here.

Each structure is given as a SMILES string. Counter-ions that a name gives are not always drawn. Like-named read-outs stand apart in the source and are kept apart here.

The test deals with reserpine-induced hypothermia. The test is described as follows: inhibition of reserpine-induced hypothermia in mice (antidepressant action). The class given is in vivo, mice (Swiss strain). Conditions: for ED50: Mus musculus; for ED50 / ED50 (antidepressant action, dose which inhibits the reserpine-induced hypothermia by 50%): body temperature two hours after reserpine. As to the method: The antidepressant action of the substances according to the invention was investigated using the following model:
2.15 mg/kg of reserpine administered subcutaneously to male mice (Swiss strain) weighing 20-26 g lowers the body temperature by an average of 3° C., measured two hours after administration of the reserpine and at an ambient temperature of 20°-22° C. Antidepressants inhibit this hypothermia, the inhibition being dose-dependent. The test substances are administered orally, 60 minutes before the administration of reserpine.
The dose which inhibits the reserpine-induced hypothermia by 50%, ie. the ED50, is determined from the linear regression between log dose (mg/kg) and relative decrease in hypothermia.
In some cases, the activity is substantially greater than that of imipramine (for Example 18c, by a factor of 72).

Where [1] appears, read: male mice (Swiss strain), oral, 60 minutes before 2.15 mg/kg reserpine s.c., read-out: ED50 (antidepressant action, dose which inhibits the reserpine-induced hypothermia by 50%).
Where [2] appears, read: po, read-out: ED50 (antidepressant action, dose which inhibits the reserpine-induced hypothermia by 50%), male mice (Swiss strain), oral, 60 minutes before 2.15 mg/kg reserpine s.c.
Setting [3] is: male mice (Swiss strain), oral, 60 minutes before 2.15 mg/kg reserpine s.c.

Take `CN(C)CCC1(c2cccc(Cl)c2)CCc2ccccc2C1=O.Cl` (centres unmarked) [Example 8, 1-oxo-2-(3-chlorophenyl)-2-(2-dimethylaminoethyl)-1,2,3,4-tetrahydronaphthalene hydrochloride]: the ED50 under setting [1] came out at 5.2 mg/kg.

For the compound `CN(C)CCC1(c2ccccc2)CCc2ccccc2C1=O` (centres unmarked) [Example 1, 1-oxo-2-phenyl-2-(2-dimethylaminoethyl)-1,2,3,4-tetrahydronaphthalene], the ED50 under setting [2] was determined as 0.14 mg/kg.

In the case of `CN(C)CCCN1c2ccccc2CCc2ccccc21` [imipramine, reference compound], the ED50 under setting [2] is 6.8 mg/kg.

As to `CN(C)CCC1(c2ccc(F)cc2)CCc2ccccc2C1=O.Cl` (centres unmarked) [Example 5, 1-oxo-2-(4-fluorophenyl)-2-(2-dimethylaminoethyl)-1,2,3,4-tetrahydronaphthalene hydrochloride], the ED50 under setting [1] is 4.9 mg/kg.

On to `CN(C)CCC1(c2ccc(Cl)cc2)CCc2ccccc2C1=O` (centres unmarked) [Example 3, 1-oxo-2-(4-chlorophenyl)-2-(2-dimethylaminoethyl)-1,2,3,4-tetrahydronaphthalene], for which, under setting [1], the ED50 was 4.6 mg/kg.

For `CN(C)CCC1(c2ccccc2)CCc2ccccc2C1=O` (racemic) [Example 18c, 1-oxo-2-phenyl-2-(2-dimethylaminoethyl)-1,2,3,4-tetrahydronaphthalene], under setting [3], the “ED50 (antidepressant action, dose which inhibits the reserpine-induced hypothermia by 50%)” value came out at 0.09 mg/kg. In addition, the “activity greater than that of imipramine, by a factor of” value (ratio of ED50 to imipramine, oral, mice) is reported as 72.

Turning to `CN(C)CCC1(c2ccccc2)CCc2c(Cl)cccc2C1=O` (centres unmarked) [Example 12, 1-oxo-5-chloro-2-phenyl-2-(2-dimethylaminoethyl)-1,2,3,4-tetrahydronaphthalene], the ED50 under setting [1] is 0.9 mg/kg.

As for `Cc1cccc(C2(CCN(C)C)CCc3ccccc3C2=O)c1` (centres unmarked) [Example 2, 1-oxo-2-(3-tolyl)-2-(2-dimethylaminoethyl)-1,2,3,4-tetrahydronaphthalenehydrochloride], under setting [1], the ED50 turned out to be 6.8 mg/kg.

Consider `CN(C)CCC1(c2ccccc2)CCc2ccccc2C1=O` (racemic) [Example 18a, 1-oxo-2-phenyl-2-(2-dimethylaminoethyl)-1,2,3,4-tetrahydronaphthalene], for which the “ED50 (antidepressant action, dose which inhibits the reserpine-induced hypothermia by 50%)” value under setting [3] worked out at 0.85 mg/kg.

For `COc1cccc(C2(CCN(C)C)CCc3ccccc3C2=O)c1.O=C(O)C(=O)O` (centres unmarked) [Example 14, 1-oxo-2-(3-methoxyphenyl)-2-(2-dimethylaminoethyl)-1,2,3,4-tetrahydronaphthalene hydrogen oxalate], under setting [1], the ED50 was 2.3 mg/kg.
